Measured values reported in patent US11021454B2, “Type of aryl benzofuran amidated derivative and medical use thereof” (CHINA PHARMACEUTICAL UNIVERSITY, priority 2016, dated 2021).
Marks after values point to notes of the source that are not given here. Each block holds one molecule with its values, some of them ahead of it.

Tests used:
[1] = DPPH free radical scavenging experiment (antioxidant activity); format: biochemical; conditions: average of three parallel experiments; 0.1 mM DPPH, 30 min in the dark, 517 nm
Method: The antioxidant activity of the synthesized benzofuran amidated derivative is evaluated by DPPH free radical scavenging experiment.
(1) Preparation of DPPH solution: accurately weigh the appropriate amount of DPPH, add MeOH and perform ultrasonic dissolution to prepare 10 mM stock solution, and store at −20° C. Dilute to 0.1 mM with MeOH before the experiment and store in the dark;
Use MeOH to dilute to different concentrations ([…]) before the experiment.
(§1) Data processing: Data is processed by using Excel analysis and half-inhibitory concentration (IC50) is calculated by using GraphPad Prism 6.0.2.

xanthine oxidase = xanthine oxidase (Homo sapiens (Human), UniProt P47989); assay: Xanthine oxidase inhibitory activity (absorbance at 295 nm, xanthine substrate); format: biochemical; conditions: average of four parallel experiments
Chain of xanthine oxidase (P47989 whole entry, species assumed): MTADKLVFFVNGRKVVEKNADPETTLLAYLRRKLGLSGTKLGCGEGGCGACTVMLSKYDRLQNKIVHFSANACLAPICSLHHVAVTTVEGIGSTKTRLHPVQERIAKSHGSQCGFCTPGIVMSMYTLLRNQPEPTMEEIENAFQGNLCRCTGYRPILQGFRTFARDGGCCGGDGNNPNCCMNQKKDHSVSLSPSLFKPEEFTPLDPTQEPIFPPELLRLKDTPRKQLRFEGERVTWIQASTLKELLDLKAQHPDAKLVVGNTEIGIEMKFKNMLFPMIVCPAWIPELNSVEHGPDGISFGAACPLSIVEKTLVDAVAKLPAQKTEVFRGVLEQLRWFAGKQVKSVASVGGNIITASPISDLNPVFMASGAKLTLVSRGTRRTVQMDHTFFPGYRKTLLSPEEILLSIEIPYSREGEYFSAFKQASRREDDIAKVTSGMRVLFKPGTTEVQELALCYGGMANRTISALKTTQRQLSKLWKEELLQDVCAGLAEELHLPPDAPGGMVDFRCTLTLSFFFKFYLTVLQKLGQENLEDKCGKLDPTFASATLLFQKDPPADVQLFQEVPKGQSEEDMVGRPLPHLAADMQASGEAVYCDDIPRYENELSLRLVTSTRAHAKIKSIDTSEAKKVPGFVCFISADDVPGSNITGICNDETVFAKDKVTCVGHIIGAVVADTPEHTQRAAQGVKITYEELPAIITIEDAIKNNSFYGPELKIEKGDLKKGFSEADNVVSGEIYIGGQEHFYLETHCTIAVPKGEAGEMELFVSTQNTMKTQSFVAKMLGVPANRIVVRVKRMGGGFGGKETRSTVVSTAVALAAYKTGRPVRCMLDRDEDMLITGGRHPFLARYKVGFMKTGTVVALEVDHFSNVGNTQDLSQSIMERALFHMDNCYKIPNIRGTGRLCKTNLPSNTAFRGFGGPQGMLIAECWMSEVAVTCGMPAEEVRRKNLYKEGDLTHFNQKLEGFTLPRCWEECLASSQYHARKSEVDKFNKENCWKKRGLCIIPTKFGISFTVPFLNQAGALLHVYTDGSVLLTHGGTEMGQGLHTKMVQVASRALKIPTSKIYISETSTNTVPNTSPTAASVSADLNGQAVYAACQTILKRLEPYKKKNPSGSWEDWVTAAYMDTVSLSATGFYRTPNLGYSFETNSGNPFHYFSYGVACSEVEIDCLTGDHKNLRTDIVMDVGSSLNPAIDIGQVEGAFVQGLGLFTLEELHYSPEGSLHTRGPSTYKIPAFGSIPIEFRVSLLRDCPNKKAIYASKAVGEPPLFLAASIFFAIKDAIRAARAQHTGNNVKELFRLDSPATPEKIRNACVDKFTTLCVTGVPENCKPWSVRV
Method: Determination of Xanthine Oxidase Inhibitory Activity of Aryl Benzofuran Amidated Derivatives and Reagents (Amino Derivatives)
(2) XOD solution: Take 25 U/2.6 mL of XOD, dilute to 0.08 U/mL of XOD working solution with 75 mM PB solution, mix well with a pipette, store on ice for future use;
(3) Substrate preparation: accurately weigh the appropriate amount of xanthine (XA) into 5 mL of 0.1 N NaOH solution, dissolve it ultrasonically, and add 95 mL of 75 mM PB solution to prepare a substrate mother liquor with a final concentration of 0.48 mM, perform vortex mixing for 1 min; it is to be freshly prepared before each experiment;
Use DB to dilute to different concentrations ([…]) before the experiment, and the DMSO content is less than 0.1%.
as §1

[2] = system: LPS-stimulated macrophage RAW 264.7; assay: Scavenging of superoxide anion in LPS-stimulated macrophage RAW 264.7 (2-OH-E+ by LC-MS); format: cell-based; conditions: for Decrease of 2-OH-E+ (%): test drug 10 μM, 0.1 μg/mL LPS, 24 h, RAW 264.7; for scavenging effect on superoxide anion compared to the model group: LPS-stimulated RAW 264.7
Method: The antioxidant activity (the ability to scavenge superoxide anion) of the synthesized benzofuran amidated derivative is evaluated by a cell model.
After phagocytosis of bacteria, senescent denatured cells, immune complexes or oxidized low-density lipoproteins, mammalian macrophages cells enter a functional activation state, with enhanced intracellular lysosomal function and increased ROS levels, and they secrete and synthesize inflammatory cytokines. Lipopolysaccharide (LPS) is the main component of the cell wall of Gram-negative bacteria and is the main material basis for its pathogenesis; it can stimulate the production of monocytes/macrophages and release a large amount of reactive oxygen species (mainly including O2^− and H2O2), inflammatory factors such as nitric oxide (NO), IL-1β and Tumor necrosis factor-α (TNF-α) that are involved in the acute phase response of the body, causing inflammatory damage to the body. The present invention utilizes the LPS-stimulated macrophage model to evaluate the antioxidant activity of benzofuran amidated derivatives to scavenge superoxide anion at the cellular level.
(2) LPS: accurately weigh the appropriate amount of LPS, and prepare a sample stock solution of 0.1 g/ml, with DMEM and store at −20° C. for later use.
(3) Probe Stabilizer DTPA: Weigh accurately the amount of DTPA, prepare a 20 mM sample stock solution with DMSO, dilute to 100 µM with PB, and store at 4° C. for use.
(4) HE: Prepare a 20 mmol/L stock solution by dissolving the probe with dimethyl sulfoxide under anaerobic and dark conditions, and store at −80° C. in the dark. Take it out before use, prepare a 10 μmol/L solution with DMEM, place it on ice and store it in the dark.
(1) RAW 264.7 cells are cultured in Petri dishes (60 mm), 4 mL per dish, and incubated in a 5% CO2 incubator with saturated humidity at 37° C. The experiment is divided into blank group, model group and drug-administered group.
(2) After 12 h of cell culture, the supernatant is discarded, and the test drug with a final concentration of 10 μM containing 0.1 μg/mL LPS medium is added, and two parallel holes are provided for each sample to be tested.
(3) Continue to culture in a cell culture incubator for 24 h, the supernatant is discarded, the cells are washed with PBS, and added to DMEM medium containing the probe HE (10 μM) and cultured in the dark for 30 min.
(4) The cells are then washed twice with ice-cold PBS/(100 μM) DTPA, then added 1 mL PBS/(100 μM) DTPA, before the cells are divided into two with a spatula (700 μL and 300 μL) and collected into EP tubes; then they are centrifuged at 13,000 rpm for 10 min at 4° C., the supernatant is removed, and the cell pellet are stored at −80° C. for future use.
(2) Pretreatment of the sample to be tested: 500 μL acetonitrile is added to each EP tube, protected from light, sonicated (10 s, eight cycles, 100 W), and centrifuged at 12,000 g for 10 min at 4° C. The supernatant is transferred to a 1.5 mL EP tube and dried under vacuum for 1 h to obtain a red dried material; the sample is then re-dissolved with 100 μL of mass spectrometry water, and the internal standard substance galantamine is added to make the final concentration of the sample to be tested at 0.1 μM. The sample to be tested is then centrifuged at 13,000 rpm for 10 min at 4° C. and analyzed by LC-MS.

[3] = Hyperuricemia model induced by potassium oxonate in mice: serum uric acid; format: in vivo, Kunming mice; conditions: 2 h after administration, potassium oxonate 300 mg/kg
Method: The effect of benzofuran amidated derivatives on blood uric acid in mice is evaluated by an animal model of hyperuricemia induced by potassium oxonate
(1) Test animals: Kunming mice are provided by the Test Animals Center of Yangzhou University. Fasting is given 12 h before the drug administration and during the test period, and drinking water is not restricted during the experiment.
The test drug is prepared with 0.5% sodium carboxymethylcellulose (CMC-Na) at a suitable concentration; the normal control group of mice are intraperitoneally injected with 0.5% sodium carboxymethylcellulose, and the other groups are injected intraperitoneally with potassium oxonate 300 mg/kg. 1 h later, the mice in the normal control group and the model group are intraperitoneally injected with 0.5% sodium carboxymethylcellulose, and the other groups are intraperitoneally injected with 10 mL/kg of the test drug. 2 hours after the drug administration, 500 μL of blood is taken from the eyeball, placed at room temperature for 1 h, centrifuged at 3000 rpm for 5 min, and the upper serum is stored at −4° C. The uric acid level in the serum of the mice is determined according to the method as specified the uric acid detection kit.

Normal hepatocyte LO2 = assay: Inhibition of uric acid production in xanthine-modelled hepatocyte cell model; format: cell-based
Method: The effect of benzofuran amidated derivatives on uric acid production is evaluated using a cell model.
(2) Experimental procedure: Normal hepatocyte LO2 are inoculated in a 6-well plate (plate density 1×10^6 cells/mL), and cell experiments are performed after 4 hours of plating.
(3) Pre-treatment of mass spectrometry: take 100 μL of the medium collected, add MeOH 400 μL, CHCl3 100 μL and H2O 300 μL, perform vortex mixing, and centrifuging at 20000 g for 10 min, then take the upper layer for concentration and dry.

IC50 [1]: > 100 µM
IC50 (xanthine oxidase): > 60 µM
SMILES: COC(=O)[C@@H](Cc1ccc(OC)c(OC)c1)OC(=O)/C=C/c1ccc(OC)c2oc(-c3ccc(OC)c(OC)c3)cc12 [Compound 7, (2R)-3-(3,4-dimethoxyphenyl)-1-methoxy-1-oxopropan-2-yl (2E)-3-[2-(3,4-dimethoxyphenyl)-7-methoxy-1-benzofuran-4-yl]prop-2-enoate]

SMILES: N[C@@H](Cc1c[nH]c2ccccc12)C(=O)O [L-trp]
IC50 (xanthine oxidase): > 60 µM

SMILES: COC(=O)[C@H](C)NC(=O)/C=C/c1ccc(O)c2oc(-c3ccc(O)c(O)c3)cc12 [Compound 5c, Methyl (E)-(3-(2-(3,4-dihydroxyphenyl)-7-hydroxybenzofuran-4-yl)acryloyl)-L-alaninate]
Decrease of 2-OH-E+ (%) [2]: 60.54%

SMILES: COC(=O)[C@@H](Cc1ccc(O)c(O)c1)NC(=O)/C=C/c1ccc(O)c2oc(-c3ccc(O)c(O)c3)cc12 [Compound 5b]
Decrease of 2-OH-E+ (%) [2]: 74.16%
Serum uric acid value (mg/dl) ([3]; 20 mg/kg intraperitoneal): 3.87 ± 0.31*^a mg/dl
Serum uric acid value ([3]; 40 mg/kg intraperitoneal): 3.61 ± 0.25 mg/dL
Serum uric acid value ([3]; 80 mg/kg intraperitoneal): 3.30 ± 0.46 mg/dL

SMILES: C[C@H](NC(=O)/C=C/c1ccc(O)c2oc(-c3ccc(O)c(O)c3)cc12)C(=O)O [Compound 6c, (E)-(3-(2-(3,4-dihydroxyphenyl)-7-hydroxybenzofuran-4-yl)acryloyl)-L-alanine]
scavenging effect on superoxide anion compared to the model group [2]: obvious scavenging effect
Decrease of 2-OH-E+ (%) [2]: 41.65%

SMILES: O=C(/C=C/c1ccc(O)c2oc(-c3ccc(O)c(O)c3)cc12)N[C@H](Cc1ccc(O)c(O)c1)C(=O)O [Compound 6b, (R,E)-3-(3,4-dihydroxyphenyl)-2-(3-(2-(3,4-dihydroxyphenyl)-7-hydroxybenzofuran-4-yl)acrylamido) propanoic Acid]
Decrease of 2-OH-E+ (%) [2]: 80.81%

SMILES: O=C(/C=C/c1ccc(O)c2oc(-c3ccc(O)c(O)c3)cc12)N[C@@H](Cc1ccc(O)cc1)C(=O)O [Compound 6e, (E)-(3-(2-(3,4-dihydroxyphenyl)-7-hydroxybenzofuran-4-yl)acryloyl)-L-tyrosine]
Decrease of 2-OH-E+ (%) [2]: 83.41%
Serum uric acid value ([3]; 20 mg/kg intraperitoneal): 3.82 ± 0.62 mg/dL
Serum uric acid value ([3]; 40 mg/kg intraperitoneal): 3.54 ± 0.26 mg/dL
Serum uric acid value ([3]; 80 mg/kg intraperitoneal): 3.26 ± 0.44 mg/dL

SMILES: Oc1ncnc2[nH]ncc12 [Allopurinol, reference compound]
Serum uric acid value ([3]; 20 mg/kg intraperitoneal): 3.18 ± 0.50 mg/dL

SMILES: COC(=O)[C@H](Cc1ccc(O)c(O)c1)NC(=O)/C=C/c1ccc(O)c2oc(-c3ccc(O)c(O)c3)cc12 [Compound 5a, Methyl (S,E)-3-(3,4-dihydroxyphenyl)-2-(3-(2-(3,4-dihydroxyphenyl)-7-hydroxybenzofuran-4-yl)acrylamido)propanoate]
Decrease of 2-OH-E+ (%) [2]: 78.59%

SMILES: O=C(/C=C/c1ccc(O)c2oc(-c3ccc(O)c(O)c3)cc12)N[C@@H](Cc1ccccc1)C(=O)O [Compound 6d, (E)-(3-(2-(3,4-dihydroxyphenyl)-7-hydroxybenzofuran-4-yl)acryloyl)-L-phenylalanine]
Decrease of 2-OH-E+ (%) [2]: 81.27%

SMILES: C[C@H](N)C(=O)O [L-ala]
IC50 (xanthine oxidase): > 60 µM

SMILES: N[C@@H](CS)C(=O)O [L-cys]
IC50 (xanthine oxidase): > 60 µM

SMILES: Cc1nc(-c2ccc(OCC(C)C)c(C#N)c2)sc1C(=O)O [Febuxostat]
inhibition at 5 µM (Normal hepatocyte LO2; Homo sapiens, L02, 5 μM, LO2 cells, 10 μM xanthine, 24 h, read-out: Inhibition rate (%) of uric acid): 78.7%

SMILES: Cc1c(C)c2c(c(C)c1O)CC[C@@](C)(CCC[C@H](C)CCC[C@H](C)CCCC(C)C)O2 [Ve, vitamin E, reference compound]
Decrease of 2-OH-E+ (%) [2]: 53.18%

SMILES: O=C(/C=C/c1ccc(O)c2oc(-c3ccc(O)c(O)c3)cc12)O[C@H](Cc1ccc(O)c(O)c1)C(=O)O [Salvianolic acid C, reference compound]
scavenging effect on superoxide anion compared to the model group [2]: obvious scavenging effect
Decrease of 2-OH-E+ (%) [2]: 37.82%
IC50 [1]: 6.87 µM
Inhibition rate (%) of uric acid (Normal hepatocyte LO2; 10 μM, LO2 cells, 10 μM xanthine, 24 h): 15.2%
Inhibition rate (%) of uric acid (Normal hepatocyte LO2; 30 μM, LO2 cells, 10 μM xanthine, 24 h): 24.7%
Inhibition rate (%) of uric acid (Normal hepatocyte LO2; 50 μM, LO2 cells, 10 μM xanthine, 24 h): 31.4%
inhibitory effect on the formation of uric acid in hepatocyte model (Normal hepatocyte LO2; xanthine modeling): significant inhibitory effect
IC50 (xanthine oxidase): 8.26 µM

SMILES: CSCC[C@H](N)C(=O)O [L-met]
IC50 (xanthine oxidase): > 60 µM

SMILES: N[C@@H](Cc1ccccc1)C(=O)O [L-phe]
IC50 (xanthine oxidase): > 60 µM

IC50 (xanthine oxidase): > 60 µM
SMILES: N[C@@H](Cc1ccc(O)c(O)c1)C(=O)O [L-dopa]

SMILES: N[C@@H](Cc1ccc(O)cc1)C(=O)O [L-tyr]
IC50 (xanthine oxidase): > 60 µM

IC50 (xanthine oxidase): > 60 µM
SMILES: N[C@H](Cc1ccc(O)c(O)c1)C(=O)O [D-dopa]
